In patent publication US20110117169A1, “METHODS AND COMPOSITIONS FOR CAPTURE OF CELLS” (AFFINERGY, INC., priority 2009, published 2011):
Ends that are not written are not given here.

Legend:
[1] = tested on: human MSCs (mixed with IM-9 and U937 cells); assay: Capture of MSCs from a mixed cell population with peptide on CELLECTION magnetic beads; assay type: cell-based; conditions: starting mixture 38% IM9, 56% U937, 4% MSC
From the text: In this experiment, biotinylated cell binding peptide, SEQ ID NO: 16, was attached to CELLECTION magnetic beads. The CELLECTION beads have streptavidin coupled to a magnetic particle through a DNA linker. Three different cell types, human MSCs, IM-9, and U937 cells were differentially labeled with […] dye and mixed in a ratio such that the MSCs represented ˜4% of the starting cell mixture (the percentage of each cell type in the starting mixture was 38% IM9, 56% U937, and 4% MSC). The cell binding peptide, SEQ ID NO: 16, was biotinylated as described herein at Example 2, as was a general cell binding peptide for use as a control peptide in the experiment. Magnetic particles with no peptide attached, as well as magnetic beads having attached either the cell binding peptide, SEQ ID NO: 16, or the control peptide were tested for their ability to capture human MSCs. The starting cell mixture was incubated with magnetic beads having either attached peptide or no peptide, the beads were washed, and the captured cells were released from the beads by DNase treatment. The cells were measured by flow cytometry histograms shown in 18A-18C. The magnetic beads without peptide captured little or no cells (FIG. 18B). The magnetic beads with attached cell binding peptide SEQ ID NO: 16 captured a cell population that was 96% MSCs (FIG. 18C).

[2] = tested on: endothelial colony forming cells (ECFCs); assay: Biotinylated peptide binding to endothelial and other cells, flow cytometry; set-up: species or system human; conditions: biotinylated peptide 10 μM, 30 min at 4° C.
Method: (§1) The synthetic biotinylated binding peptide SEQ ID NO: 4 was further examined for its ability to bind endothelial cells compared to other cell types (see FIG. 16). […] ECFCs are clonally expanded cells isolated from human umbilical cord blood, and are considered highly proliferative endothelial progenitor cells (EPCs) based on their clonogenic and proliferative potential. In another experiment, binding peptide SEQ ID NO: 4 was assayed for its ability to selectively isolate endothelial cells versus smooth muscle cells in the presence of whole blood. HUVECs or UASMCs were incubated in the presence of medium containing 20% whole blood and binding peptide SEQ ID NO: 4-conjugated magnetic beads (via biotin-SA) for 30 min. The solutions containing the bead-peptide-cell complexes were then passed through a […] LS column in a magnetic field. The column was washed, and the remaining peptide-bound cells were then released from the magnetic field and counted.

dermal fibroblasts = assay: Biotinylated peptide cell binding specificity, flow cytometry with Neutravidin-PE; set-up: species or system human; conditions: 25 μM solution, 30 min at 4° C.
From the text: (§2) The synthetic biotinylated cell binding peptide SEQ ID NO: 4 was examined for its ability to specifically bind MSCs compared to a number of other cells types including adipose-derived mesenchymal stem cells (ASCs), dermal fibroblasts, rodent MSCs, red blood cells, monocytes, lymphocytes and granulocytes. The cell binding peptide was biotinylated as described herein at Example 2. Cultured cells of each type were either purchased (ASCs and dermal fibroblasts) or isolated from rodent bone marrow (rodent MSCs) or human blood. Cells were first harvested and resuspended at 10^6/mL in PBS+2% fetal bovine serum (FBS). An aliquot of cells (50 μL) was incubated in 50 μL of peptide solution (25 μM in PBS+FBS) for 30 min at 4° C. Cells were then washed twice in PBS+FBS with 300×g centrifugation for 5 min between washes. Fluorescently-tagged neutravidin (Neutravidin-PE from INVITROGEN) was then added to the cells to label biotinylated peptide bound to cells. Neutravidin-PE was diluted 1:250 from stock and applied at 50 μL to cells. Cells were then washed in PBS+FBS, and acquired on a BD […]. Peptide reactivity was then measured as percent positivity relative to Neutravidin-PE staining without the addition of biotinylated peptide.

[3] = tested on: umbilical artery smooth muscle cells (UASMCs); assay: Biotinylated peptide binding to endothelial and other cells, flow cytometry; conditions: biotinylated peptide 10 μM, 30 min at 4° C.
Method: as §1

[4] = tested on: human umbilical vein endothelial cells (HUVECs); assay: as above; conditions: biotinylated peptide 10 μM, 30 min at 4° C.
Method: as §1

[5] = tested on: human ASCs (adipose-derived mesenchymal stem cells); assay: Biotinylated peptide cell binding specificity, flow cytometry with Neutravidin-PE; conditions: 25 μM solution, 30 min at 4° C.
From the text: as §2

human MSCs = assay: as above; conditions: 25 μM solution, 30 min at 4° C.
From the text: as §2

TGF-β3 = biological target: T1, TGF-β3 (Homo sapiens, UniProt P10600); assay: ELISA-type binding of growth factor to biotinylated peptide on streptavidin plates; conditions: peptide 0.2 μM on streptavidin plate, TGF-β3 1 μM-1 nM
T1 sequence (P10600 301-412 limits assumed): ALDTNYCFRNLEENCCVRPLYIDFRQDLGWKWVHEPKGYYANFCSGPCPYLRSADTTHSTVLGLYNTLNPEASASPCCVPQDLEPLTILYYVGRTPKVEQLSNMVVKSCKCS
From the text: Peptides that bind TGF-β3 were identified by phage display biopanning. Recombinant human TGF-β3 (rhTGF-β3) was biotinylated and immobilized on streptavidin-coated microtiter plates. Twenty-two different phage display libraries were used for the selection. Enrichment of target-binding phage in the selection was monitored using an ELISA-type assay with an HRP-conjugated anti-M13 antibody. After enrichment for TGF-β3 specific phage, individual phage were picked, propagated on E. coli, and tested for binding to TGF-β3. Over 20 individual phage were isolated that bound TGF-β3. […] The TGF-β3-binding peptide sequences were then synthesized using standard solid-phase peptide synthesis techniques on a Symphony Peptide Synthesizer (PROTEIN TECHNOLOGIES, Tucson, Ariz.) using standard Fmoc chemistry as described herein above at Example 2. Biotinylated peptides were generated similarly, with a GSSGK(biotin) sequence added to the C-terminus of the peptide.
The TGF-β binding peptides with the biotin moiety on their C-terminus were tested for their ability to bind the target growth factor using the following methods. Streptavidin-coated plates were first prepared by generating a 1:100 dilution of streptavidin (1 mg/mL) in 0.1M NaHCO3 buffer. […] To reveal immunoreactivity, 100 μL of para-nitrophenyl phosphate solution was added to each well, and optical density was recorded on a spectrophotometer.

“SSFRFGPLGTWNYPSTDNAE (also: biotin, site not given here) [SEQ ID NO: 16, tested biotinylated]” was tested, and the “MSCs in captured cell population” value [1] was 96%.
In the case of “SSFWDVCQGDGTCYGGGSR (SSFWDVCQGDGTCYGGGSRGSSG-{K(biotin)}; cysteine pairing not given here) [SEQ ID NO: 4, tested biotinylated (C-terminal GSSGK(biotin) or other spacer)]”, the “cross-reactivity with ECFCs” value [2] was “cross-reacted strongly”, the “binding to dermal fibroblasts (percent positivity relative to Neutravidin-PE staining)” value (dermal fibroblasts) was “high binding” and the “cross-reactivity with UASMCs” value [3] was “weakly”. For the same sequence, the “cross-reactivity with HUVECs” value [4] was “cross-reacted strongly”, the “binding to human ASCs (percent positivity relative to Neutravidin-PE staining)” value [5] was “high binding” and the “binding to human MSCs (percent positivity relative to Neutravidin-PE staining)” value (human MSCs) was “high binding”.
With “SSCNNLSVCTFDKIIERNRSSR (SSCNNLSVCTFDKIIERNRSSRGSSG-{K(biotin)}; cysteine pairing not given here) [SEQ ID NO: 21, tested with C-terminal GSSGK(biotin)]” the “binding affinity for TGF-β3” value (TGF-β3) was “best binding affinity”.
